Test results taken from paper PMC5564600 (Oncotarget, 2017).

Assays:
Test in all cases: biochemical
Type in all cases: binding
[1] = biological target: T1, panel of 442 kinases (Homo sapiens, UniProt P19525); details: kinase PRKR; for remaining activity at 1 µM: read-out: PRKR (% of control at 1 µM)
T1 construct: purchased Ambit Biosciences (scanMAXX KINOMEscan)

[2] = biological target: T2, panel of 442 kinases (Homo sapiens, UniProt O76039); details: CDKL5; for remaining activity at 1 µM: read-out: % of control at 1 µM
T2 construct: purchased Ambit Biosciences (scanMAXX KINOMEscan)
T2 sequence (O76039 1-960): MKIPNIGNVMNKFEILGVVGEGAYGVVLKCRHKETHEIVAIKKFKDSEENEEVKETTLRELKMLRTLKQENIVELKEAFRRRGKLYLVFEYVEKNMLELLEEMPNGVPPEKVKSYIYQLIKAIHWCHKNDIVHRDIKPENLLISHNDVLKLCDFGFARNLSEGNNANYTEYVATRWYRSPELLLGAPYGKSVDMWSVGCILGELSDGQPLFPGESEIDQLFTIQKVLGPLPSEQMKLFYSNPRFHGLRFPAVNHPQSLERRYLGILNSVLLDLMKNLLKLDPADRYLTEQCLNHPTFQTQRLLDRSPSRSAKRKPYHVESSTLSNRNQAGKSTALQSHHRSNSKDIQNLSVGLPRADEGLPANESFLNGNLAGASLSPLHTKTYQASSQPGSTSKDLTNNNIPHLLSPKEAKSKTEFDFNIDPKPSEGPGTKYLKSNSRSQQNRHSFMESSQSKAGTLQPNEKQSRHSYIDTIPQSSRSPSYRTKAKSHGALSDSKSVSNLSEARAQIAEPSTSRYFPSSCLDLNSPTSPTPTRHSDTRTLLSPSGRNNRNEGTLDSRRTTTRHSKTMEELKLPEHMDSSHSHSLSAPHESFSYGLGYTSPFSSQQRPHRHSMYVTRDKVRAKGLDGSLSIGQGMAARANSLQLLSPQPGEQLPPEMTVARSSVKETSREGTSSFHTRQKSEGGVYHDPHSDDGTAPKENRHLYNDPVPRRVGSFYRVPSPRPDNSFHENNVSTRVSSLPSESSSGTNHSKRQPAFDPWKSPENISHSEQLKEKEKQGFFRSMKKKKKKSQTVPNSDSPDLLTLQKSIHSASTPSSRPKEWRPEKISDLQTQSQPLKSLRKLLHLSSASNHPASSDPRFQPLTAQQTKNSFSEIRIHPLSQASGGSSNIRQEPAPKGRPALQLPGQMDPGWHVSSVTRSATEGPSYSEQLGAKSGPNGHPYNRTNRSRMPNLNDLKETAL

[3] = biological target: T3, panel of 442 kinases (Homo sapiens, UniProt P30530); details: AXL; for remaining activity at 1 µM: read-out: % of control at 1 µM
T3 construct: purchased Ambit Biosciences (scanMAXX KINOMEscan)
T3 sequence (P30530 26-894): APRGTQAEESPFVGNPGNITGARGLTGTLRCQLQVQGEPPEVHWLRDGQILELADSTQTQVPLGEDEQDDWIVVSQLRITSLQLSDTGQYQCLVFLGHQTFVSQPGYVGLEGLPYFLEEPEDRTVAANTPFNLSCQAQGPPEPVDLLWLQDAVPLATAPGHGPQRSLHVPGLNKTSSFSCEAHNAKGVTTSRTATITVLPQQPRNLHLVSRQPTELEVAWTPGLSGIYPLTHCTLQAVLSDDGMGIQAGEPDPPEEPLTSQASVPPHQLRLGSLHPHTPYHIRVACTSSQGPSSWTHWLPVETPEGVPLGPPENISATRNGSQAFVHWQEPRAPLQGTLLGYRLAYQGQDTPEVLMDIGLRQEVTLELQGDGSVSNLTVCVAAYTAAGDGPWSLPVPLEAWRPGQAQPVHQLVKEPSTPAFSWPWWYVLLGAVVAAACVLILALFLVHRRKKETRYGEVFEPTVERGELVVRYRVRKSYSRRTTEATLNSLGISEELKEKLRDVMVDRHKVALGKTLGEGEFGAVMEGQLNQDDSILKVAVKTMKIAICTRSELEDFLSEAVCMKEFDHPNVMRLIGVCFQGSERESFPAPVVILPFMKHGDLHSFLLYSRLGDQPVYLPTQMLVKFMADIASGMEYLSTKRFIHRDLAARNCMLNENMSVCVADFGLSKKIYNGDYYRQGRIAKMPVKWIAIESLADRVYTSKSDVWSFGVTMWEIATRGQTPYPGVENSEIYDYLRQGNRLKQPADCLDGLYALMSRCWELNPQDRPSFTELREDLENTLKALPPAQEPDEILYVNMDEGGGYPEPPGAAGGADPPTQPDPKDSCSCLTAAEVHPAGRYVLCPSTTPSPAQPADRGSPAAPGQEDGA

[4] = biological target: T4, panel of 442 kinases (Homo sapiens, UniProt P35916); details: kinase FLT4; for remaining activity at 1 µM: read-out: % of control at 1 µM
T4 construct: purchased Ambit Biosciences (scanMAXX KINOMEscan)
T4 sequence (P35916 25-1363): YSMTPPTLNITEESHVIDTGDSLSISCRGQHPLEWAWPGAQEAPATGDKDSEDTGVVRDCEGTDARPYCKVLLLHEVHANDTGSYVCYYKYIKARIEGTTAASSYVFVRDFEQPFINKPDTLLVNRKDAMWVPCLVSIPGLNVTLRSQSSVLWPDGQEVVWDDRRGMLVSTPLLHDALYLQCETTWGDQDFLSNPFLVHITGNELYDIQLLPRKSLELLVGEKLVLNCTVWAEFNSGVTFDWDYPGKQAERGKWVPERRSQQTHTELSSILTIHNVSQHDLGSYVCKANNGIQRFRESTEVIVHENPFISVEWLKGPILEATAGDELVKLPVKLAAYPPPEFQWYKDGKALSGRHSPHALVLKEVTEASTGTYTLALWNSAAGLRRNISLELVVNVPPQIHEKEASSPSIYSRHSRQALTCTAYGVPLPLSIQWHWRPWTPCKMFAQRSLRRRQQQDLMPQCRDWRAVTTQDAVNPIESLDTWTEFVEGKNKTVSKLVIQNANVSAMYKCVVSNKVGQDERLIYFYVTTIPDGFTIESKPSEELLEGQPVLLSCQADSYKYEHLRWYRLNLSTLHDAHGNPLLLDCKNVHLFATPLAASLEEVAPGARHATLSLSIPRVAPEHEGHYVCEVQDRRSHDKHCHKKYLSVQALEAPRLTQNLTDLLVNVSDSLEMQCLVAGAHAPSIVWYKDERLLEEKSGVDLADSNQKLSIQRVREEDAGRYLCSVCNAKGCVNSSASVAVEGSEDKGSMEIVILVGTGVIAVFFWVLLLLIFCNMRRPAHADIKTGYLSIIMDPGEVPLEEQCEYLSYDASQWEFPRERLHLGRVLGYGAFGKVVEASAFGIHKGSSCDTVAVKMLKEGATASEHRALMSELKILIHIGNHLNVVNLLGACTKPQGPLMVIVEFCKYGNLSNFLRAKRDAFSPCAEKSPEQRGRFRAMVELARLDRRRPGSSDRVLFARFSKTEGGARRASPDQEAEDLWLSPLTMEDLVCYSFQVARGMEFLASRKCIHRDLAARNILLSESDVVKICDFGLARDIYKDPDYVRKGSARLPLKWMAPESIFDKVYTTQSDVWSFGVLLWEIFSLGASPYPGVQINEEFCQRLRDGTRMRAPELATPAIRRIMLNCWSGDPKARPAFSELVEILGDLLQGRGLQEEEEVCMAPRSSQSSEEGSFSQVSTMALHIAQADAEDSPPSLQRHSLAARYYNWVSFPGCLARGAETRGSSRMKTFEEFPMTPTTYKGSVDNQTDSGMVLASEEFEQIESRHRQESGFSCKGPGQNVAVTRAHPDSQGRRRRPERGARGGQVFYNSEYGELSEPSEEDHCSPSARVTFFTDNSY

[5] = biological target: T5, panel of 442 kinases (Homo sapiens, UniProt P54753); details: EPHB3; for remaining activity at 1 µM: read-out: % of control at 1 µM
T5 construct: purchased Ambit Biosciences (scanMAXX KINOMEscan)
T5 sequence (P54753 34-998): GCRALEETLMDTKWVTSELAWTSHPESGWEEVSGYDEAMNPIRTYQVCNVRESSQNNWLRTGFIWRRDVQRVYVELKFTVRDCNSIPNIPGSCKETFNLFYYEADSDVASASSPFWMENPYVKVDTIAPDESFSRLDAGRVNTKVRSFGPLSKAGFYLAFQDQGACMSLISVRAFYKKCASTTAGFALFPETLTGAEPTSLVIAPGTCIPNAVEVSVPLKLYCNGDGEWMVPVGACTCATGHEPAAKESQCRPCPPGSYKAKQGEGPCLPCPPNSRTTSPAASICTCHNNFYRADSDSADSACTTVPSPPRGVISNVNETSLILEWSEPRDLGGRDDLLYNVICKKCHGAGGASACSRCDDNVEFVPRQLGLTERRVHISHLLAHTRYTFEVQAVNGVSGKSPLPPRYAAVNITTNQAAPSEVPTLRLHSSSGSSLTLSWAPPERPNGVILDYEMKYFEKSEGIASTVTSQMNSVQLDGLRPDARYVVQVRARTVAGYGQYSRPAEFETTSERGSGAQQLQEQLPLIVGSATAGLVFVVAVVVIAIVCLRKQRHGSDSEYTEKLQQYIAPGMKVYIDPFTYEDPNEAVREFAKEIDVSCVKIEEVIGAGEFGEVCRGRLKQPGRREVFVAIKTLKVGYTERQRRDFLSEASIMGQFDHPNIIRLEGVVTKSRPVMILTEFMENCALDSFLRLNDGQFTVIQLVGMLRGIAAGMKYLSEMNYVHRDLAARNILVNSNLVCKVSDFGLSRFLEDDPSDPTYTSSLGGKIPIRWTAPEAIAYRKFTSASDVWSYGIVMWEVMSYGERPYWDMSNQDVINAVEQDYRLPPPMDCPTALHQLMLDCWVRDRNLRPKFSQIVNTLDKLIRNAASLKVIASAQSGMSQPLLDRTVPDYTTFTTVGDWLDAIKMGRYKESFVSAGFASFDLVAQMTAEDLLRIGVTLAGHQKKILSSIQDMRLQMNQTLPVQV

[6] = 10 µM, read-out: % of control at 10 µM

T1 sequence (P19525 whole entry): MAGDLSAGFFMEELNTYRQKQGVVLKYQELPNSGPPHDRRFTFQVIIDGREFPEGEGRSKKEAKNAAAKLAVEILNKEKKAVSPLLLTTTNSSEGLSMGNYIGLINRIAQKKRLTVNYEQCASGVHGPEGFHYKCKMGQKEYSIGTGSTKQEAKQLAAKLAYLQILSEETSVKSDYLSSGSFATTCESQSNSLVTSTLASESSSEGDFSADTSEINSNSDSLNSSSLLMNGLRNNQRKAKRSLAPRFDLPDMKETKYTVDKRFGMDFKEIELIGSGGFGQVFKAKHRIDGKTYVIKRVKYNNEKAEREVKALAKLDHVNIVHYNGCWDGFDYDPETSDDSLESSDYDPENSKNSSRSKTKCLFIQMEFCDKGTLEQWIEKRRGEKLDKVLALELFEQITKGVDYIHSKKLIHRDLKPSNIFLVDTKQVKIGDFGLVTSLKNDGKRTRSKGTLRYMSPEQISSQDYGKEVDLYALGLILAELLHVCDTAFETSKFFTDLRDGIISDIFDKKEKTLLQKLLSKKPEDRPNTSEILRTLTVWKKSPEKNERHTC

Nc1cc(C(F)(F)F)c(-c2cc(N3CCOCC3)nc(N3CCOCC3)n2)cn1 [Buparlisib]
remaining activity at 1 µM [1]: 88%
remaining activity at 10 µM ([1]; 10 µM, read-out: PRKR (% of control at 10 µM)): 100%
remaining activity at 1 µM [2]: 88%
remaining activity at 10 µM [2, 6]: 100%
remaining activity at 1 µM [3]: 89%
remaining activity at 10 µM [3, 6]: 100%
remaining activity at 1 µM [4]: 99%
remaining activity at 10 µM [4, 6]: 100%
remaining activity at 1 µM [5]: 91%
remaining activity at 10 µM [5, 6]: 100%

Cn1c(=O)n(-c2ccc(C(C)(C)C#N)cc2)c2c3cc(-c4cnc5ccccc5c4)ccc3ncc21 [Dactolisib, 2-methyl-2-[4-(3-methyl-2-oxo-8-quinolin-3-yl-2,3-dihydroimidazo[4,5-c]quinolin-1-yl)-phenyl] propionitrile]
remaining activity at 1 µM [1]: 95%
remaining activity at 1 µM [2]: 100%
remaining activity at 1 µM [3]: 48%
remaining activity at 1 µM [4]: 100%
remaining activity at 1 µM [5]: 70%

COc1ncc(-c2ccc3nccc(-c4ccnnc4)c3c2)cc1NS(=O)(=O)c1ccc(F)cc1F [Omipalisib]
remaining activity at 1 µM [1]: 84%
remaining activity at 1 µM [2]: 100%
remaining activity at 1 µM [3]: 100%
remaining activity at 1 µM [4]: 100%
remaining activity at 1 µM [5]: 100%

FC(F)c1nc2ccccc2n1-c1nc(N2CCOCC2)nc(N2CCOCC2)n1 [ZSTK474, 2-(difluoromethyl)-1-[4,6-di(4-morpholinyl)-1,3,5-triazin-2-yl]-1H-benzimidazole]
remaining activity at 1 µM [1]: 93%
remaining activity at 1 µM [2]: 100%
remaining activity at 1 µM [3]: 93%
remaining activity at 1 µM [4]: 96%
remaining activity at 1 µM [5]: 56%
